Data from patent publication US20130059929A1, “MICROBIOLOGICALLY STABLE, EASILY APPLICABLE PREPARATIONS” (Beiersdorf AG, priority 2010, published 2013).

System: Staphylococcus epidermidis
Assay: biofilm assay (biofilm inhibition and biofilm dissolution, color reaction on microtiter plate scale, FIG. 1)
Assay type: cell-based
Settings: based on the positive control (PC1); for biofilm-dissolving effect: timepoint 24 h; for biofilm inhibition (biofilm-inhibiting effectiveness): timepoint 0 h
Experimental: In the course of the biofilm assay, the biofilm inhibition at timepoint 0 h and also the biofilm-dissolving effect at timepoint 24 h is investigated using a color reaction on a microtiter plate scale.
The test shown in FIG. 1 was carried out with Staphylococcus epidermidis, a germ which causes little harm for people with a normal immunological defense. Staphylococcus epidermidis (syn. Staphylococcus albus, Micrococcus epidermidis, Staphylococcus saprophyticus) is a Gram-positive, plasmacoagulase-negative, saprophagic bacterium which colonizes the human skin and mucosa. Furthermore, it can be found on foods and also colonizes on polymeric surfaces (e.g. packagings). However, in a hospital, in the case of immunocompromised people, it can, in cases of lack of cleanliness, be a cause of serious diseases.

Structure (SMILES) | biofilm-dissolving effect | effectiveness in the biofilm assay (inhibition / dissolution not distinguished) | biofilm inhibition (biofilm-inhibiting effectiveness)
CC(C)(C)CC(C)(C)c1ccc(OCCOCC[N+](C)(C)Cc2ccccc2)cc1 [benzethonium chloride, benzyldimethyl (4-{2-[4-(1,1,3,3-tetramethylbutyl)phenoxy]ethoxy}ethyl)ammonium chloride] | very good biofilm-dissolving effect | – | –
CCOC(=O)c1ccc(O)cc1 [ethylparaben] | – | Neither ethylparaben nor methylparaben exhibited effectiveness | –
CCCCCCCCCCCC(=O)N[C@@H](CCCN=C(N)N)C(=O)OCC.Cl [lauroyl ethyl arginate, ethyl lauroyl arginate HCl] | very good biofilm-dissolving effect | – | very good biofilm-inhibiting effectiveness
Cn1sccc1=O [methylisothiazolinone, 2-methyl-2H-isothiazol-3-one] | slight biofilm dissolution | – | very good biofilm-inhibiting effectiveness
COC(=O)c1ccc(O)cc1 [methylparaben] | – | Neither ethylparaben nor methylparaben exhibited effectiveness | –
Cc1cc(CC(C)CC(C)(C)C)n(O)c(=O)c1 (stereo not drawn) [piroctone olamine, 1-hydroxy-4-methyl-6-(2,4,4-trimethylpentyl)-2(1H)-pyridone] | slight biofilm dissolution | – | very good biofilm-inhibiting effectiveness
